Source: patent US20100076023A1, “AMORPHOUS SOLID COMPOSITION CONTAINING A PYRAZOLE-3-CARBOXAMIDE IN AMORPHOUS FORM AND STABILISING CARRIERS” (SANOFI-AVENTIS, priority 2007, published 2010)
Converted amounts (≈) assume the structure as drawn.

What was measured:
[1] = comparative tests on intrinsic dissolution; assay type: physicochemical; details: Acetonitrile/H2O (60/40), 500 ml, 37° C., 75 revolutions/minute, pellets 0.5 cm^2, UV at 246 nm
Protocol: A. Tests for evaluating the rate of intrinsic dissolution are carried out with the amorphous rimonabant obtained in Example 9 and the rimonabant in its crystalline form.
These tests are carried out under the following conditions: • Solution: Acetonitrile/H2O (60/40) • Volume: 500 ml • Temperature: 37° C. • Rotation speed: 75 revolutions/minute • Surface area of the pellets: 0.5 cm^2 • Compressive force on the pellets: 2 tonnes, 20 seconds • Assay method: UV at 246 nm • Equipment: Vankel “VK700”-Kontron “Uvikon 941+”
B. Tests are carried out with the amorphous surinabant obtained in Example 10 and the surinabant in its crystalline form. The test conditions are identical to those of the comparative tests carried out for rimonabant (see preceding section A).

[2] = water-solubility at pH 6.5; assay type: physicochemical
Protocol: (§1) These compounds are molecules which are relatively water-insoluble; their water-solubilities are respectively 0.1 μg/ml and 1 μg/l at pH=6.5. Furthermore, these compounds have high membrane permeability coefficients: respectively 78×10^−7 cm/s and 96×10^−7 cm/s on the Caco-2 cell model, as described by M. G. Gres et al., in Pharmaceutical Research, 1998, 15(5), 726-733.

[3] = membrane permeability on the Caco-2 cell model; assay type: in vitro ADME; details: human; Caco-2 cell model (Gres et al.); read-out: membrane permeability coefficient
Protocol: as §1

[4] = stability under stressing conditions (100° C., X-ray powder diffractometry); assay type: physicochemical; details: same stressing conditions
Protocol: The apparatus used is a Bragg-Brentano-type DT 500 diffractometer from Siemens®. The line used is Kα1 of copper obtained at an accelerating voltage of 30 mA-40 kV. The diffractograms are recorded for angles of between 2° and 40° at the rate of 1°.min^−1 in Bragg 2-theta.
The physicochemical stability of the solid solution of powder obtained is determined at 100° C. without a controlled atmosphere, for 52 days. Several samples are placed in an oven adjusted to the temperature of 100° C. and analyzed at various times by X-ray powder diffractometry.
The physicochemical stability of the solid solution of Example 2 is determined at 100° C. without a controlled atmosphere, for 28 days. Several samples are placed in an oven adjusted to the temperature of 100° C., and are analyzed at various times by powder X-ray diffractometry.

| Structure (SMILES) | rate of intrinsic dissolution [1] | solubility [2] | Papp [3] | time in which it becomes completely crystalline [4] |
| --- | --- | --- | --- | --- |
| CCc1c(C(=O)NN2CCCCC2)nn(-c2ccc(Cl)cc2Cl)c1-c1ccc(Br)cc1 [crystalline surinabant, N-piperidino-5-(4-bromophenyl)-1-(2,4-dichlorophenyl)-4-ethylpyrazole-3-carboxamide] | 0.2 mg.min^−1.cm^−2 | – | – | – |
| CCc1c(C(=O)NN2CCCCC2)nn(-c2ccc(Cl)cc2Cl)c1-c1ccc(Br)cc1 [surinabant, N-piperidino-5-(4-bromophenyl)-1-(2,4-dichlorophenyl)-4-ethylpyrazole-3-carboxamide] | – | 1 µg/mL (≈ 1.91 µM) | 9.6 ×10⁻⁶ cm/s | – |
| Cc1c(C(=O)NN2CCCCC2)nn(-c2ccc(Cl)cc2Cl)c1-c1ccc(Cl)cc1 [amorphous rimonabant, N-Piperidino-5-(4-chlorophenyl)-1-(2,4-dichlorophenyl)-4-methylpyrazole-3-carboxamide] | 1.3 mg.min^−1.cm^−2 | – | – | – |
| Cc1c(C(=O)NN2CCCCC2)nn(-c2ccc(Cl)cc2Cl)c1-c1ccc(Cl)cc1 [rimonabant, N-Piperidino-5-(4-chlorophenyl)-1-(2,4-dichlorophenyl)-4-methylpyrazole-3-carboxamide] | – | 0.1 µg/mL (≈ 0.216 µM) | 7.8 ×10⁻⁶ cm/s | – |
| Cc1c(C(=O)NN2CCCCC2)nn(-c2ccc(Cl)cc2Cl)c1-c1ccc(Cl)cc1 [crystalline rimonabant, N-Piperidino-5-(4-chlorophenyl)-1-(2,4-dichlorophenyl)-4-methylpyrazole-3-carboxamide] | 0.7 mg.min^−1.cm^−2 | – | – | – |
| CCc1c(C(=O)NN2CCCCC2)nn(-c2ccc(Cl)cc2Cl)c1-c1ccc(Br)cc1 [amorphous surinabant, N-piperidino-5-(4-bromophenyl)-1-(2,4-dichlorophenyl)-4-ethylpyrazole-3-carboxamide] | 0.85 mg.min^−1.cm^−2 | – | – | ≤ 24 h |
